What all share (assay): NCI tumour cell line growth inhibition, 48 h
The subject of assay [1] is UACC-62 melanoma.
Assay [2] deals with MALME-3M melanoma.
For assay [3], the system named is KM12 colon.
Assay [4] deals with SW-620 colon.
For assay [5], the system named is SF-539 CNS.
Assay [6] deals with MDA-MB-231 breast.
In assay [7] the test system is NCI-H522 lung.
Assay [8] concerns T-47D breast.
Assay [9] concerns SK-MEL-2 melanoma.
The subject of assay [10] is IGROV1 ovarian.
Assay [11] relates to SNB-75 CNS.
Assay [12] relates to RPMI-8226 leukemia.

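Dose response: 5 concentrations. Exposure: 48 h. Format: 96-well plates. Endpoint: linear interpolation; highest concentration if not reached. Definition used: TGI = concentration required for complete inhibition of growth.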

In the case of `O=C1C(Cl)C2(CC(/C=C/c3ccccc3)=NN2c2cccc(S(=O)(=O)O)c2)N1c1nc2ccccc2s1` (centres undefined), the TGI in assay [1] turned out to be 29.8 µM; in assay [2], 33.3 µM; in [3] it was 30.9 µM; in assay [4] it was 93.6 µM; in [5], 35.3 µM; in assay [6] it was 29.4 µM. In addition, the TGI in assay [7] was 20.1 µM; in assay [8], 27.9 µM; in assay [9], 40.9 µM; in [10] it was 21.1 µM; in assay [11] it was 30.3 µM; in assay [12] it was 33.8 µM.
In the case of `COc1cc(O)c2c(=O)c(O)c(-c3ccc(O)c(OC)c3)oc2c1`, the TGI in assay [2] is more than 100 µM; in assay [3] it was more than 100 µM; in assay [4] it was more than 100 µM; in [5] it was more than 100 µM; in assay [6] it was more than 100 µM; in assay [7] it was 6.21 µM. The TGI in assay [8] is more than 100 µM; in [9], more than 100 µM; in [10] it was more than 100 µM; in assay [11] it was more than 20.5 µM; in assay [12] it was more than 100 µM.
As to `N#Cc1nc(-c2ccco2)oc1N`, the TGI in [1], in [2], in [3], in [4], in [5] and in assay [6] was more than 10 µM each time. Moreover, the TGI in [7], in [8], in [10], in [11] and in [12] was more than 10 µM in each case.
Regarding `O=C(c1cccs1)N(C(=S)OCCOc1ccccc1)c1ccccc1`, the TGI in assay [1] was 37.7 µM; in assay [2], 69.9 µM; in assay [3], 81 µM; in assay [4], 80 µM; in assay [5], 58 µM; in assay [6] it was 61.9 µM. The TGI is 45.1 µM in assay [7]; more than 100 µM in assay [8]; 55.6 µM in [9]; 79.2 µM in assay [10]; 54.7 µM in assay [11]; 53.9 µM in assay [12].
For the compound `C=C1CC(c2ccc(OCCCN3C(=O)c4ccccc4C3=O)cc2)OC1=O` (centres undefined), the TGI in assay [1] amounted to 4.75 µM; in [2], 7.27 µM; in assay [3] it was 16.8 µM; in [4], 2.99 µM; in assay [5] it was 0.827 µM; in [6], 13 µM. The TGI in assay [7] is 1.83 µM; in assay [8], more than 34.7 µM; in assay [9], 4.98 µM; in [10], 4.57 µM; in assay [11], 23.7 µM; in [12], 3.68 µM.
On to `N#Cc1c2c(c(N)oc1=O)C(c1ccccc1)CC(=O)N2` (centres undefined), for which the TGI in assay [1], in assay [2], in assay [3], in assay [4], in [5] and in assay [6] was more than 100 µM throughout. For the same compound, the TGI in [7], in assay [8], in assay [9], in assay [10], in [11] and in [12] was more than 100 µM throughout.
Turning to `COc1ccc(OC)c(N(CN2C(=O)CCC2C(=O)O)C(C)=O)c1` (centres undefined), the TGI in [1], in assay [2], in assay [3], in assay [4], in [5] and in assay [6] was more than 100 µM in each case. Besides, the TGI in [7], in assay [8], in assay [9], in assay [10], in assay [11] and in assay [12] was more than 100 µM each time.
Turning to `COC(=O)c1ccc2c(c1)S/C(=C/c1ccc3ccc4cccc5ccc1c3c45)S2`, the TGI was 61 µM in assay [1]; more than 100 µM in [2]; 57.3 µM in [3]; 76.8 µM in [4]; more than 100 µM in assay [5]; more than 100 µM in assay [6]. Besides, the TGI in assay [7] was 92.2 µM; in assay [8] it was more than 100 µM; in [9], more than 100 µM; in [10] it was more than 100 µM; in [11] it was 46 µM; in assay [12] it was more than 100 µM.
On to `CCOC(=O)C(=CNc1ccc(NC2=NCC(C)S2)cc1)C(=O)OCC` (centres undefined), for which the TGI in [1] was 26.8 µM; in [2], 96.2 µM; in assay [3], more than 87.9 µM; in assay [4], more than 100 µM; in assay [5], more than 100 µM; in assay [6], more than 100 µM. Further, the TGI is 36.8 µM in [7]; more than 84.5 µM in assay [8]; 50.7 µM in assay [9]; more than 100 µM in assay [10]; more than 74.1 µM in assay [11]; 32.3 µM in assay [12].
On to `CCOP1(=O)CC(C)=C(Cl)C(O)C1` (centres undefined), for which the TGI in assay [1], in assay [2], in assay [3], in assay [4], in assay [5] and in assay [6] was more than 100 µM throughout. In addition, the TGI in [7], in assay [8], in assay [9], in assay [10], in [11] and in [12] was more than 100 µM throughout.
On to `Clc1cc(Cl)cc(N=C/C=C/Nc2cc(Cl)cc(Cl)c2)c1`, for which the TGI in assay [1] was 48 µM; in assay [2], more than 100 µM; in assay [3], 30.2 µM; in assay [4] it was 37.6 µM; in assay [5], 58.9 µM; in assay [6], 30.2 µM. Further, the TGI in assay [7] was 34.1 µM; in assay [8], more than 100 µM; in [9], 40.7 µM; in assay [10], 55.8 µM; in [11], 39.3 µM; in [12], 76.9 µM.
Consider `O=[N+]([O-])c1ccc(C(=S)Nc2ccccc2)o1`, for which the TGI in assay [1] stood at 11.4 µM; in assay [2], 9.3 µM; in assay [3], 6.88 µM; in [4] it was 3.82 µM; in assay [5] it was 4.58 µM; in [6], 8.06 µM. Further, the TGI in assay [7] is 3.11 µM; in assay [8], 95.1 µM; in [9], 7.95 µM; in assay [10], 17.8 µM; in [11], 30.4 µM; in assay [12], 4.9 µM.
Take `COC(=O)[C@]1(NC(=O)c2ccccc2)C[C@H]1C=O`: the TGI in [1], in assay [2], in assay [3], in [4], in assay [5] and in [6] was more than 100 µM each time. For the same compound, the TGI in assay [7], in assay [8], in assay [9], in assay [10], in assay [11] and in [12] was more than 100 µM in each case.
Turning to `NC(=O)C(=CNC(=S)Nc1ccccc1)C(N)=O`, the TGI in assay [1], in assay [2], in assay [3], in assay [4], in assay [5] and in [6] was more than 100 µM in each case. Moreover, the TGI in assay [7], in assay [8], in [9], in assay [10], in [11] and in assay [12] was more than 100 µM throughout.
`CC(=O)OCC(=O)O[C@@H]1[C@H]2[C@@H](OC(=O)c3ccccc3)[C@@H](C)C[C@]2(O)[C@H](OC(C)=O)[C@@]2(C)C(OC(C)=O)[C@]1(OC(C)=O)C[C@H]1C(=O)C(C)(C)C[C@@H]12` (some centres undefined): the TGI in assay [1], in assay [2], in assay [3], in [4], in assay [5] and in assay [6] was more than 50 µM in each case. The TGI in assay [7], in assay [8], in assay [9], in assay [10], in [11] and in [12] was more than 50 µM throughout.
With `COc1cc2c(c(O)c1OC)C(=O)[C@@H]1CCC(=O)N1C2`, the TGI in [1], in assay [2], in assay [3], in assay [4], in assay [5] and in assay [6] was more than 100 µM throughout. The TGI in assay [7], in assay [8], in assay [9], in assay [10], in assay [11] and in [12] was more than 100 µM in each case.
Take `c1cc2nnc1SCCCSc1ccc(nn1)SCCCS2`: the TGI is more than 77.6 µM in [1]; more than 100 µM in assay [2]; more than 100 µM in [3]; more than 100 µM in assay [4]; more than 93.9 µM in assay [5]; more than 100 µM in assay [6]. Also, the TGI in [7] was more than 100 µM; in assay [8], more than 100 µM; in [9] it was more than 86.8 µM; in assay [10], more than 81.3 µM; in assay [11], more than 56.6 µM; in assay [12] it was more than 100 µM.
Take `Cc1nc2ccc(C(F)(F)F)cc2nc1NCc1ccc(Cl)c(Cl)c1`: the TGI was determined as 18.5 µM in assay [1]; 32 µM in assay [2]; 30.1 µM in assay [3]; 34.7 µM in assay [4]; 33.7 µM in [5]; 29.4 µM in [6]. In addition, the TGI in assay [7] was 28.8 µM; in assay [8] it was 9 µM; in [10], 31.3 µM; in assay [11], 26.9 µM; in [12] it was 38.9 µM.
For `COC(=O)c1cc2c(c3c1CC(Cc1ccccc1)C3=O)CCC2` (centres undefined), the TGI in assay [1] was more than 100 µM; in assay [2], more than 100 µM; in assay [3], 41.8 µM; in assay [4] it was more than 100 µM; in [5], more than 100 µM; in [6] it was more than 100 µM. Further, the TGI in assay [7], in assay [8], in [10], in [11] and in assay [12] was more than 100 µM throughout.
Consider `CC1(c2nc3ccccc3[nH]2)CCC(C(=O)O)C(C)(C)O1` (centres undefined), for which the TGI in assay [1], in assay [2], in [3], in assay [4], in assay [5] and in [6] was more than 100 µM throughout. Moreover, the TGI in assay [7], in assay [8], in assay [9], in assay [10], in assay [11] and in [12] was more than 100 µM in each case.
`CC1=NC(=Cc2ccccc2O)C(=O)N1n1c(-c2ccccc2)nc2ccccc2c1=O`: the TGI in assay [1] was 34.6 µM; in assay [2], more than 100 µM; in assay [3], more than 100 µM; in [4] it was more than 100 µM; in assay [5], 87.3 µM; in [6], more than 100 µM. Also, the TGI in [7], in assay [8], in assay [10], in assay [11] and in [12] was more than 100 µM throughout.
As for `CCOC(=O)NNC(=O)NCc1cccc(CNC(=O)NNC(=O)OCC)c1`, the TGI in assay [1], in [2], in assay [3], in assay [4], in assay [5] and in assay [6] was more than 100 µM each time. The TGI in [7], in assay [8], in assay [9], in [11] and in [12] was more than 100 µM each time.
Take `Nc1ncnc2oc(C3OC(COC(=O)c4ccccc4)C(OC(=O)c4ccccc4)C3OC(=O)c3ccccc3)nc12` (centres undefined): the TGI in assay [1], in [2], in assay [3], in assay [4], in assay [5] and in assay [6] was more than 100 µM in each case. The TGI in [7], in assay [8], in assay [10], in assay [11] and in assay [12] was more than 100 µM throughout.
